Test results: patent US20250223331A1, “GLP-1/GIP DUAL-TARGETED POLYPEPTIDE AND FUSION PROTEIN AND APPLICATIONS THEREOF” (SUNSHINE LAKE PHARMA CO., LTD., priority 2021, published 2025)
Marks after values point to notes of the source that are not given here.

What was measured:
Assay type in all cases: in vivo
normal C57BL/6 mice [1] = test: glucose tolerance in normal C57BL/6 mice (Example 8); conditions: 3 nmol/kg s.c. single dose, 72 h after dose
Method: Experimental methods: Normal C57BL/6 mice were randomly divided into 6 groups (Vehicle group, Dulaglutide group, HEC-G113 group, HEC-G122 group, HEC-G126 group, HEC-G127 group) according to blood glucose and body weight, with 8 mice in each group. For the groups of Dulaglutide (Dulaglutide purchased from Eli Lilly, lot number was D256504), HEC-G113, HEC-G122, HEC-G126 and HEC-G127, the corresponding drug was injected subcutaneously into the mice at a dose of 3 nmol/kg, and for the control group, the corresponding vehicle was injected subcutaneously.
After 60 h of single administration, the mice were fasted for 12 h and drank water freely. Blood was collected from the tail vein to measure the basal blood glucose value of each group, then 2 g/kg of glucose solution was injected intraperitoneally, and blood glucose was measured at 15, 30, 60, 90 and 0 min after glucose administration. According to the blood glucose values measured at different time points, the blood glucose concentration-time curve was plotted, and the AUC0˜90min of each dose group was calculated, and the experimental results are shown in Table 7 and FIGS. 3-4

normal C57BL/6 mice [2] = test: glucose tolerance in normal C57BL/6 mice (Example 7); conditions: 3 nmol/kg s.c. single dose, 72 h after dose
Method: Experimental methods: Normal C57BL/6 mice were randomly divided into 6 groups (Vehicle group, Dulaglutide group, HEC-G123 group, HEC-G128 group, HEC-G131 group, HEC-G132 group) according to blood glucose and body weight, with 8 mice in each group. For the groups of Dulaglutide, HEC-G123, HEC-G128, HEC-G131 and HEC-G132, the corresponding drug was injected subcutaneously into the mice at a dose of 3 nmol/kg, and for the control group, the corresponding vehicle was injected subcutaneously.
After 60 h of single administration, the mice were fasted for 12 h and drank water freely. Blood was collected from the tail vein to measure the basal blood glucose value of each group, then 2 g/kg of glucose solution was injected intraperitoneally, and blood glucose was measured at 15, 30, 60, and 0 min after glucose administration. According to the blood glucose values measured at different time points, the blood glucose concentration-time curve was plotted, and the AUC0˜90min of each dose group was calculated, and the experimental results are shown in Table 6 and FIGS. 1-2.

normal C57BL/6 mice [3] = test: as above; conditions: 3 nmol/kg s.c. single dose, 72 h after dose, 2 g/kg glucose i.p.
[4] = blood glucose concentration-time curve

Dulaglutide [reference compound]
Blood glucose value 0 min (normal C57BL/6 mice [1]; 2 g/kg glucose i.p., 0 min): 4.3 ± 0.4 mM
Blood glucose value 15 min (normal C57BL/6 mice [1]; 2 g/kg glucose i.p., 15 min): 15.3 ± 3.1 mM
Blood glucose value 30 min (normal C57BL/6 mice [1]; 2 g/kg glucose i.p., 30 min): 15.1 ± 2.7 mM
Blood glucose value 60 min (normal C57BL/6 mice [1]; 2 g/kg glucose i.p., 60 min): 9.1 ± 1.3 mM
Blood glucose value 90 min (normal C57BL/6 mice [1]; 2 g/kg glucose i.p., 90 min): 6.8 ± 0.9 mM
AUC0-90 min (normal C57BL/6 mice [1]; [4]): 976.2 ± 135.6 ^a
Blood glucose value 0 min (normal C57BL/6 mice [2]; 2 g/kg glucose i.p., 0 min): 4.4 ± 0.8 mM
Blood glucose value 15 min (normal C57BL/6 mice [2]; 2 g/kg glucose i.p., 15 min): 15.7 ± 2.2 mM
Blood glucose value 30 min (normal C57BL/6 mice [2]; 2 g/kg glucose i.p., 30 min): 12.7 ± 2.4 mM
Blood glucose value 60 min (normal C57BL/6 mice [2]; 2 g/kg glucose i.p., 60 min): 8.1 ± 1.0 mM
AUC0-90 min (normal C57BL/6 mice [2]; [4]): 899.0 ± 105.4 ^a
Blood glucose value 90 min (normal C57BL/6 mice [3]): 6.8 ± 0.6 mM
